The values below come from patent US20050250794A1, “Methods of treating a disorder” (priority 2003, published 2005).

SMILES strings stand for the structures. Read-outs that look alike come from different tables or passages of the source.

In one assay the target is T1, SirT2 (Homo sapiens, UniProt Q8IXJ6).
T1 sequence (Q8IXJ6 1-389): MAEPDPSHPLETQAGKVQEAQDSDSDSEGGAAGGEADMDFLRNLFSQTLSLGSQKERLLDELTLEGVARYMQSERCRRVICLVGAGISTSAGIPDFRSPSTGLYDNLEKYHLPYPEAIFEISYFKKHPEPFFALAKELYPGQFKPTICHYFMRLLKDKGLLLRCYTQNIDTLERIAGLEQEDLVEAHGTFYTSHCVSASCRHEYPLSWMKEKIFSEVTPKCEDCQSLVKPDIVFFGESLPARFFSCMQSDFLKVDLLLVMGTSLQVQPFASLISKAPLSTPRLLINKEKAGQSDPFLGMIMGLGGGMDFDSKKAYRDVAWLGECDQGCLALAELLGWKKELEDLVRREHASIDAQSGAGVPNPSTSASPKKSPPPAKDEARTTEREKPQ
The experiment in a line: SirT2 activity (Tables 1 and 2). It is filed as biochemical.

The next assay has as its target T2, human SirT1 (Homo sapiens, UniProt Q96EB6).
T2 construct: purchased Biomol SE-239
T2 sequence (Q96EB6 1-747): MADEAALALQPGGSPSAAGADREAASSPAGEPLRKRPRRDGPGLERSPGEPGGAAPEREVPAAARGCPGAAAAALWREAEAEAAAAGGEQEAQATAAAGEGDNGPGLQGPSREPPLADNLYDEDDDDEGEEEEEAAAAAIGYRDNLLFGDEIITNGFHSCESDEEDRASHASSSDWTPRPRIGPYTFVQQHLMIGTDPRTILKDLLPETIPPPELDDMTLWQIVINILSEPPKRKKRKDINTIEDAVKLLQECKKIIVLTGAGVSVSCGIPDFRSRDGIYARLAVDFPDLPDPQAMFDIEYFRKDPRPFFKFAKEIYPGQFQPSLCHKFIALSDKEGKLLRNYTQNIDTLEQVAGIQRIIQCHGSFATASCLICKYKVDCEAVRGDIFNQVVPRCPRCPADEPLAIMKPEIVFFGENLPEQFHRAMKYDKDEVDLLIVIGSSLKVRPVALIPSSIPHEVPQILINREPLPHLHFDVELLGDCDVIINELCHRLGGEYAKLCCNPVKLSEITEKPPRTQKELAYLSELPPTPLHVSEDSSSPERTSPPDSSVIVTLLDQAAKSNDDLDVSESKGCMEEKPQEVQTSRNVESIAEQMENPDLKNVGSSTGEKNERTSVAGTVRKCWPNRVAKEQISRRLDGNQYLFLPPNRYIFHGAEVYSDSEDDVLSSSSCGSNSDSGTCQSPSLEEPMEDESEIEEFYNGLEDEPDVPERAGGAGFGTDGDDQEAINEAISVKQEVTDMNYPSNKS
Kind of assay: SirT1 Fluor de Lys enzymatic deacetylase assay. It is filed as biochemical. From the text:
An exemplary assay method includes a 1536 well format of the SirT1 enzymatic assay that is based on the commercial “Fluor-de-Lys” assay principle by Biomol, which is fluorogenic (www.biomol.com/store/Product_Data_PDFs/ak500.pdf). In this assay, deacetylation of the e-amino function of a lysyl residue is coupled to a fluorogenic “development step that is dependent on the unblocked e-amino functionality and generates fluorescent aminomethylcoumarin. Fluorescence can be read on a commercial macroscopic reader.
Step Description • 1 Prepare amount of 2× Substrates necessary for the number of wells to be assayed.

The target in the next assay is T3, GFP-hSIRT2 isoform 1 (Homo sapiens, UniProt Q8IXJ6).
T3 construct: expressed in transfected cells; host or cells: HeLa
T3 sequence (Q8IXJ6 1-389): T1 sequence (Q8IXJ6 1-389)
Kind of assay: Acetylated tubulin staining in HeLa cells transfected with GFP-hSIRT2 isoform 1. It is filed as cell-based. As to conditions: 50 μM compound with 1 μM TSA, added 36 hours post transfection, stained next morning; versus DMSO. As for the experimental part: HeLa cells were transfected with GFP-hSIRT2 isoform 1. At 36 hours post transfection 1 μM of TSA and either DMSO or 50 μM of Compound 8 was added. The next morning cells were fixed, permeabilized, and stained for acetylated tubulin.

Where [1] appears, read: Table 1, Activity of Triazoles (conc. in μM).
[2] abbreviates: Table 1, Activity of Triazoles (conc. in μM), read-out: SirT1.
[3] abbreviates: Table 2, Activity of representative compounds (conc. in μM).
Setting [4] is: Table 2, Activity of representative compounds (conc. in μM), read-out: SirT1.
[5] abbreviates: Table 3, p53-382 Fluor de Lys substrate, read-out: SirT1 p53-382-FdL IC50.

As for `NC(=O)CSc1nnc(Cc2c[nH]c3ccccc23)n1Cc1ccccc1` [Compound 1, 2-[4-Benzyl-5-(1H-indol-3-ylmethyl)-4H-[1,2,4]triazol-3-ylsulfanyl]-acetamide], the IC50 was over 10 µM at SirT2 (setting [1]) and 1 to 10 µM on human SirT1 (setting [2]).

On to `COc1ccc(-n2c(COc3cccc4ccccc34)nnc2SCC(N)=O)cc1` [Compound 2, 2-[4-(4-Methoxy-phenyl)-5-(naphthalen-1-yloxymethyl)-4H-[1,2,4]triazol-3-ylsulfanyl]-acetamide], for which the IC50 is over 10 µM against SirT2 (setting [1]) and 1 to 10 µM on human SirT1 (setting [2]).

For `Cc1ccc(-n2c(Cc3ccccc3)nnc2SCC(N)=O)cc1` [Compound 3, 2-(5-Benzyl-4-p-tolyl-4H-[1,2,4]triazol-3-ylsulfanyl)-acetamide], the IC50 was over 10 µM against SirT2 (setting [1]) and 1 to 10 µM at human SirT1 (setting [2]).

For the compound `Cc1ccc(-n2c(SCC(N)=O)nnc2-c2ccccc2Br)cc1` [Compound 4, 2-[5-(2-Bromo-phenyl)-4-p-tolyl-4H-[1,2,4]triazol-3-ylsulfanyl]-acetamide], the values for the IC50 against SirT2 (setting [1]) and on human SirT1 (setting [2]) were 1 to 10 µM and over 10 µM, respectively.

On to `O=C(O)CSc1nc2sc3c(c2c(=O)n1C1CCCCC1)CCC3` [Compound 5, (5-Cyclohexyl-4-oxo-2,3,4,5-tetrahydro-1H-8-thia-5,7-diaza-cyclopenta[a]inden-6-ylsulfanyl)-acetic acid], for which the results for the IC50 against SirT2 (setting [3]) and at human SirT1 (setting [4]) were over 10 µM and 1 to 10 µM, respectively.

For the compound `NC(=O)Cn1c(=O)oc2cc(Br)ccc21` [Compound 6, 2-(6-Bromo-2-oxo-benzooxazol-3-yl)-acetamide], the IC50 against SirT2 (setting [3]) was over 10 µM; at human SirT1 (setting [4]) it was 1 to 10 µM.

For the compound `Nn1c(CCC(=O)O)nc2sc3c(c2c1=O)CCCC3` [Compound 7, 3-(3-Amino-4-oxo-3,4,5,6,7,8-hexahydro-benzo[4,5]thieno[2,3-d]pyrimidin-2-yl)-propionic acid], the IC50 against SirT2 (setting [3]) and at human SirT1 (setting [4]) was over 10 µM throughout.

Regarding `NC(=O)COC(=O)c1sc2ccccc2c1Cl` [Compound 8, 3-Chloro-benzo[b]thiophene-2-carboxylic acid carbamoylmethyl ester], the “acetylation of tubulin in cells expressing SIRT2” value on GFP-hSIRT2 isoform 1 is given as “more highly acetylated”.

As for `Cc1sc(NC(=O)Cn2nc([N+](=O)[O-])cc2C)c(C(N)=O)c1C` [Compound 9, 4,5-Dimethyl-2-[2-(5-methyl-3-nitro-pyrazol-1-yl)-acetylamino]-thiophene-3-carboxylic acid amide], the IC50 on human SirT1 (setting [5]) is over 10 µM.

With `Cc1sc(NC(=O)c2ccc(Br)o2)c(C(N)=O)c1C` [Compound 11, 5-Bromo-furan-2-carboxylic acid (3-carbamoyl-4,5-dimethyl-thiophen-2-yl)-amide], the IC50 at human SirT1 (setting [5]) is over 10 µM.

With `Cc1sc(NC(=O)C2CCCO2)c(C(N)=O)c1C` (stereo not shown) [Compound 15, Tetrahydro-furan-2-carboxylic acid (3-carbamoyl-4,5-dimethyl-thiophen-2-yl)-amide], the IC50 on human SirT1 (setting [5]) was over 10 µM.

As to `Cc1sc(NC(=O)C2CC2)c(C(N)=O)c1C` [Compound 26, 2-(Cyclopropanecarbonyl-amino)-4,5-dimethyl-thiophene-3-carboxylic acid amide], the IC50 at human SirT1 (setting [5]) is over 10 µM.

For the compound `Cc1sc(NC(=O)c2ccncc2)c(C(N)=O)c1C` [Compound 29, N-(3-Carbamoyl-4,5-dimethyl-thiophen-2-yl)-isonicotinamide], the IC50 at human SirT1 (setting [5]) was over 10 µM.

Take `Cc1sc(NC(=O)c2cnccn2)c(C(N)=O)c1C` [Compound 30, Pyrazine-2-carboxylic acid (3-carbamoyl-4,5-dimethyl-thiophen-2-yl)-amide]: the IC50 at human SirT1 (setting [5]) was over 10 µM.

For the compound `CC1CCc2c(sc(NC(=O)C3CCCC3)c2C(N)=O)C1` (stereo not shown) [Compound 32, 2-(Cyclopentanecarbonyl-amino)-6-methyl-4,5,6,7-tetrahydro-benzo[b]thiophene-3-carboxylic acid amide], the IC50 on human SirT1 (setting [5]) was under 1 µM.

As for `CC(C)CC(=O)Nc1sc2c(c1C(N)=O)CCCCCC2` [Compound 33, 2-(3-Methyl-butyrylamino)-4,5,6,7,8,9-hexahydro-cycloocta[b]thiophene-3-carboxylic acid amide], the IC50 on human SirT1 (setting [5]) was over 10 µM.

With `NC(=O)c1c(NC(=O)C2CC2)sc2c1CCCCC2` [Compound 34, 2-(Cyclopropanecarbonyl-amino)-5,6,7,8-tetrahydro-4H-cyclohepta[b]thiophene-3-carboxylic acid amide], the IC50 at human SirT1 (setting [5]) is over 10 µM.

As to `CCC(=O)Nc1sc2c(c1C(N)=O)CCC(C)C2` (stereo not shown) [Compound 35, 6-Methyl-2-propionylamino-4,5,6,7-tetrahydro-benzo[b]thiophene-3-carboxylic acid amide], the IC50 on human SirT1 (setting [5]) fell in the range of 1 to 10 µM.

For `CC1CCc2c(sc(N)c2C(N)=O)C1` (stereo not shown) [Compound 36, 2-Amino-6-methyl-4,5,6,7-tetrahydro-benzo[b]thiophene-3-carboxylic acid amide], the IC50 at human SirT1 (setting [5]) is over 10 µM.

For `CCC1CCc2c(sc(N)c2C(N)=O)C1` (stereo not shown) [Compound 38, 2-Amino-6-ethyl-4,5,6,7-tetrahydro-benzo[b]thiophene-3-carboxylic acid amide], the IC50 on human SirT1 (setting [5]) is over 10 µM.

As for `CSc1c(CC(=O)NCCO)n(C)c2ccc(C)cc12` [Compound 48, 2-(1,5-Dimethyl-3-methylsulfanyl-1H-indol-2-yl)-N-(2-hydroxy-ethyl)-acetamide], the IC50 at human SirT1 (setting [5]) is over 10 µM.
